Source: ChEMBL document CHEMBL1201862, “PubChem BioAssay data set” (2004)
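1) Cells in 96-well plates. 2) Compound, 48 h, 5 concentrations. 3) Linear interpolation between surrounding doses. 4) Unreached endpoint = highest concentration. The concentration for 50% growth inhibition is given as GI50.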 The source made the active and inactive calls. Rule as the data show it: active = GI50 up to about 1.1 µM and inactive = higher.

Assays:
Assay in all cases: DTP human tumour cell line panel, 48 h
SK-MEL-2 = tested on: SK-MEL-2
TK-10 = tested on: TK-10
SN12C = tested on: SN12C
PC-3 = tested on: PC-3
SK-MEL-28 = tested on: SK-MEL-28
OVCAR-4 = tested on: OVCAR-4
UACC-62 = tested on: UACC-62
HOP-92 = tested on: HOP-92
NCI/ADR-RES = tested on: NCI/ADR-RES
SR = tested on: SR
MOLT-4 = tested on: MOLT-4
DU-145 = tested on: DU-145
ACHN = tested on: ACHN
OVCAR-8 = tested on: OVCAR-8
SW-620 = tested on: SW-620
EKVX = tested on: EKVX
HOP-62 = tested on: HOP-62
T47D = tested on: T47D

Measured: GI50

Cc1ccccc1C1OC1C(=O)c1ccccc1N (stereo not drawn)
inactive: SK-MEL-2 43.3 µM | TK-10 > 100 µM | SN12C 78.7 µM | PC-3 46.6 µM | SK-MEL-28 > 100 µM | OVCAR-4 47.5 µM | UACC-62 52.8 µM | HOP-92 > 100 µM | NCI/ADR-RES 51.3 µM | SR > 100 µM | MOLT-4 39.3 µM | DU-145 > 100 µM | ACHN > 100 µM | OVCAR-8 > 100 µM | SW-620 80.4 µM

COc1cc2oc(=O)cc(C)c2c(OC)c1OC(C)=O
inactive: SK-MEL-2 > 100 µM | TK-10 > 100 µM | SN12C > 100 µM | EKVX > 100 µM | PC-3 > 100 µM | SK-MEL-28 > 100 µM | OVCAR-4 > 100 µM | UACC-62 > 100 µM | NCI/ADR-RES > 100 µM | SR > 100 µM | MOLT-4 > 100 µM | HOP-62 > 100 µM | DU-145 > 100 µM | ACHN > 100 µM | OVCAR-8 > 100 µM | SW-620 > 100 µM

NC(=O)CCC(Nc1c2ccccc2nc2ccccc12)C(=O)O (stereo not drawn)
inactive: SK-MEL-2 > 100 µM | TK-10 > 100 µM | SN12C > 100 µM | EKVX 71.3 µM | SK-MEL-28 > 100 µM | OVCAR-4 4.14 µM | HOP-92 41.1 µM | SR 55.2 µM | MOLT-4 58.1 µM | ACHN 91 µM | OVCAR-8 > 100 µM | SW-620 > 100 µM

O=C(O)CCC1(CCC(=O)O)CCCCCCCCC(CCC(=O)O)(CCC(=O)O)C(=O)C1=O
inactive: SK-MEL-2 > 100 µM | TK-10 > 100 µM | SN12C > 100 µM | EKVX > 100 µM | PC-3 > 100 µM | SK-MEL-28 > 100 µM | T47D > 100 µM | OVCAR-4 > 100 µM | UACC-62 > 100 µM | HOP-92 > 100 µM | NCI/ADR-RES > 100 µM | SR 84.9 µM | HOP-62 > 100 µM | DU-145 > 100 µM | ACHN > 100 µM | OVCAR-8 > 100 µM | SW-620 > 100 µM

N#Cc1nc(/C=C/c2cccs2)oc1N
inactive: SK-MEL-2 > 100 µM | TK-10 61.4 µM | SN12C > 100 µM | EKVX 33.7 µM | PC-3 97.1 µM | SK-MEL-28 > 100 µM | UACC-62 > 100 µM | HOP-92 35.8 µM | SR 13.1 µM | MOLT-4 45 µM | HOP-62 > 100 µM | DU-145 > 100 µM | ACHN 76.9 µM | OVCAR-8 > 100 µM | SW-620 > 100 µM

O=C1c2ccccc2C2=Cc3ccccc3C(O)N12 (stereo not drawn)
inactive: SK-MEL-2 > 100 µM | TK-10 > 100 µM | SN12C > 100 µM | EKVX > 100 µM | PC-3 > 100 µM | SK-MEL-28 37.1 µM | T47D 70.5 µM | OVCAR-4 > 100 µM | UACC-62 24.9 µM | HOP-92 41.3 µM | NCI/ADR-RES > 100 µM | SR 25.8 µM | MOLT-4 34 µM | HOP-62 > 100 µM | DU-145 > 100 µM | ACHN > 100 µM | OVCAR-8 > 100 µM | SW-620 > 100 µM

CCOC(=O)c1cnc2[nH]c(=O)c3ccccc3n2c1=O
inactive: SK-MEL-2 > 100 µM | TK-10 > 100 µM | SN12C > 100 µM | EKVX > 100 µM | SK-MEL-28 > 100 µM | OVCAR-4 > 100 µM | UACC-62 > 100 µM | HOP-92 > 100 µM | SR > 100 µM | MOLT-4 > 100 µM | HOP-62 > 100 µM | ACHN > 100 µM | OVCAR-8 > 100 µM | SW-620 > 100 µM

CC(=O)NC(CCCOC(C)=O)C(=O)NC(CCCOC(C)=O)C(=O)NC(CCCOC(C)=O)C(=O)NC(Cc1ccc([N+](=O)[O-])cc1)C(=O)NCC(=O)OCc1ccccc1 (stereo not drawn)
inactive: SK-MEL-2 > 100 µM | TK-10 > 100 µM | SN12C > 100 µM | EKVX > 100 µM | PC-3 > 100 µM | SK-MEL-28 > 100 µM | T47D > 100 µM | OVCAR-4 > 100 µM | UACC-62 > 100 µM | HOP-92 > 100 µM | NCI/ADR-RES > 100 µM | SR 74 µM | MOLT-4 > 100 µM | HOP-62 > 100 µM | DU-145 > 100 µM | ACHN > 100 µM | OVCAR-8 > 100 µM | SW-620 > 100 µM

N#CC1Nc2ccccc2[C@@H](O)C1O (stereo partly drawn)
inactive: SK-MEL-2 > 100 µM | TK-10 > 100 µM | SN12C > 100 µM | EKVX > 100 µM | PC-3 > 100 µM | SK-MEL-28 > 100 µM | T47D > 100 µM | OVCAR-4 > 100 µM | UACC-62 > 100 µM | HOP-92 > 100 µM | NCI/ADR-RES > 100 µM | SR > 100 µM | MOLT-4 > 100 µM | HOP-62 > 100 µM | DU-145 > 100 µM | ACHN > 100 µM | OVCAR-8 > 100 µM | SW-620 > 100 µM
